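Interpolation was linear, between the two tested concentrations surrounding the appropriate level; five concentrations were tested over 48 hours in 96-well plates. Definition used: TGI = concentration required for complete inhibition of growth.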
Assays:
Experiment in all cases: growth of human tumour cells (NCI), 48 h
[1] = tested on: U251 CNS
[2] = tested on: MOLT-4 leukemia
[3] = tested on: COLO 205 colon
[4] = tested on: NCI-H460 lung
[5] = tested on: UACC-62 melanoma
[6] = tested on: OVCAR-4 ovarian
[7] = tested on: A549 NSCLC
[8] = tested on: HCT-116 colon
[9] = tested on: NCI-H23 lung
[10] = tested on: SW-620 colon
[11] = tested on: BT-549 breast
[12] = tested on: CCRF-CEM leukemia
[13] = tested on: 786-0 renal
[14] = tested on: OVCAR-5 ovarian
[15] = tested on: RPMI-8226 leukemia
[16] = tested on: HT29 colon
[17] = tested on: OVCAR-8 ovarian
[18] = tested on: UO-31 renal
[19] = tested on: SK-MEL-28 melanoma
[20] = tested on: SF-295 CNS
[21] = tested on: K-562 leukemia
[22] = tested on: SF-539 CNS
[23] = tested on: SN12C renal
[24] = tested on: HOP-62 NSCLC
[25] = tested on: KM12 colon
[26] = tested on: LOX IMVI melanoma
[27] = tested on: HOP-92 NSCLC
[28] = tested on: UACC-257 melanoma
[29] = tested on: SK-MEL-5 melanoma
[30] = tested on: SK-MEL-2 melanoma
[31] = tested on: M14 melanoma
[32] = tested on: SR leukemia
[33] = tested on: HCT-15 colon
[34] = tested on: NCI/ADR-RES ovarian
[35] = tested on: SK-OV-3 ovarian
[36] = tested on: HL-60(TB) leukemia
[37] = tested on: SNB-19 CNS
[38] = tested on: PC-3 prostate
[39] = tested on: HS 578T breast
[40] = tested on: ACHN renal
[41] = tested on: MDA-N
[42] = tested on: MDA-MB-231 breast
[43] = tested on: SNB-75 CNS
[44] = tested on: MDA-MB-435
[45] = tested on: DU-145 prostate
[46] = tested on: EKVX NSCLC
[47] = tested on: A498 renal
[48] = tested on: T-47D breast
[49] = tested on: RXF 393 renal
[50] = tested on: HCC-2998 colon
[51] = tested on: MCF7 breast
[52] = tested on: NCI-H226 lung
[53] = tested on: NCI-H522 lung
[54] = tested on: SF-268 CNS
[55] = tested on: MALME-3M melanoma
[56] = tested on: IGROV1 ovarian
[57] = tested on: OVCAR-3 ovarian
[58] = tested on: TK-10 renal
[59] = tested on: CAKI-1 renal

Question: Which results are given for `COc1ccc(-c2nc3ccccc3s2)cc1OC`?
Answer: TGI [1]: > 100 µM; TGI [2]: > 100 µM; TGI [3]: > 100 µM; TGI [4]: 59.8 µM; TGI [5]: > 100 µM; TGI [6]: > 100 µM; TGI [7]: > 100 µM; TGI [8]: > 100 µM; TGI [9]: > 100 µM; TGI [10]: > 100 µM; TGI [11]: 57.6 µM; TGI [12]: > 100 µM; TGI [13]: > 100 µM; TGI [14]: > 100 µM; TGI [15]: > 100 µM; TGI [16]: > 100 µM; TGI [17]: > 100 µM; TGI [18]: > 100 µM; TGI [19]: > 100 µM; TGI [20]: 88.2 µM; TGI [21]: > 100 µM; TGI [22]: > 100 µM; TGI [23]: > 100 µM; TGI [24]: > 100 µM; TGI [25]: > 100 µM; TGI [26]: > 100 µM; TGI [27]: > 100 µM; TGI [28]: > 100 µM; TGI [29]: 39.1 µM; TGI [30]: > 100 µM; TGI [31]: > 100 µM; TGI [32]: > 100 µM; TGI [33]: > 100 µM; TGI [34]: > 100 µM; TGI [35]: 62.9 µM; TGI [36]: > 100 µM; TGI [37]: 28.3 µM; TGI [38]: > 100 µM; TGI [39]: > 100 µM; TGI [40]: > 100 µM; TGI [41]: > 100 µM; TGI [42]: > 100 µM; TGI [43]: > 100 µM; TGI [44]: > 100 µM

Question: With `COC(=O)c1sc(=O)sc1SCc1cccc(CSc2sc(=O)sc2C(=O)OC)c1` as the compound, how does the TGI [1] read?
Answer: 34.3 µM

Question: What about the TGI [45] of the same compound?
Answer: > 100 µM

Question: What about the TGI [2] of the same compound?
Answer: > 100 µM

Question: What about the TGI [46] of the same compound?
Answer: > 100 µM

Question: And the TGI [3]?
Answer: > 100 µM

Question: And the TGI [47]?
Answer: > 100 µM

Question: What about the TGI [4] of the same compound?
Answer: > 100 µM

Question: What about the TGI [5] of the same compound?
Answer: > 100 µM

Question: What about the TGI [6] of the same compound?
Answer: 37.7 µM

Question: And the TGI [7]?
Answer: > 100 µM

Question: What about the TGI [8] of the same compound?
Answer: > 100 µM

Question: And the TGI [9]?
Answer: > 100 µM

Question: What about the TGI [10] of the same compound?
Answer: > 100 µM

Question: What about the TGI [11] of the same compound?
Answer: > 100 µM

Question: And the TGI [48]?
Answer: > 100 µM

Question: What about the TGI [12] of the same compound?
Answer: > 100 µM

Question: What about the TGI [13] of the same compound?
Answer: 31.4 µM

Question: What about the TGI [14] of the same compound?
Answer: > 100 µM

Question: What about the TGI [49] of the same compound?
Answer: 73.2 µM

Question: And the TGI [50]?
Answer: > 100 µM

Question: What about the TGI [16] of the same compound?
Answer: > 100 µM

Question: And the TGI [17]?
Answer: > 100 µM

Question: And the TGI [51]?
Answer: > 100 µM

Question: And the TGI [18]?
Answer: > 100 µM

Question: What about the TGI [19] of the same compound?
Answer: > 100 µM

Question: And the TGI [20]?
Answer: > 100 µM

Question: And the TGI [21]?
Answer: > 100 µM

Question: And the TGI [52]?
Answer: > 100 µM

Question: What about the TGI [23] of the same compound?
Answer: > 100 µM

Question: And the TGI [24]?
Answer: 35.7 µM

Question: And the TGI [53]?
Answer: > 100 µM

Question: And the TGI [25]?
Answer: > 100 µM

Question: What about the TGI [26] of the same compound?
Answer: > 100 µM

Question: What about the TGI [27] of the same compound?
Answer: 95.6 µM

Question: And the TGI [28]?
Answer: > 100 µM

Question: And the TGI [29]?
Answer: > 100 µM

Question: What about the TGI [30] of the same compound?
Answer: > 100 µM

Question: What about the TGI [31] of the same compound?
Answer: > 100 µM

Question: And the TGI [33]?
Answer: > 100 µM

Question: What about the TGI [34] of the same compound?
Answer: > 100 µM

Question: And the TGI [54]?
Answer: 86.1 µM

Question: And the TGI [35]?
Answer: 51.4 µM

Question: And the TGI [37]?
Answer: 61.6 µM

Question: What about the TGI [55] of the same compound?
Answer: 49.5 µM

Question: And the TGI [38]?
Answer: > 100 µM

Question: What about the TGI [56] of the same compound?
Answer: > 100 µM

Question: What about the TGI [57] of the same compound?
Answer: > 100 µM

Question: And the TGI [39]?
Answer: > 100 µM

Question: And the TGI [58]?
Answer: 57.5 µM

Question: What about the TGI [40] of the same compound?
Answer: > 100 µM

Question: What about the TGI [41] of the same compound?
Answer: > 100 µM

Question: What about the TGI [42] of the same compound?
Answer: 67.4 µM

Question: What about the TGI [44] of the same compound?
Answer: > 100 µM

Question: What about the TGI [59] of the same compound?
Answer: 93.5 µM
